This passage reports GI50 and TGI results from PubChem BioAssay (NCI).

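96-well plates; 48 h exposure; 5 concentrations. Endpoints by linear interpolation between flanking doses. Not reached: highest tested concentration assigned. Abbreviation: GI50, concentration required for 50% inhibition of growth. TGI: concentration producing complete growth inhibition.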 Bounds are passed on as bounds.

Among the test systems are OVCAR-8 ovarian; EKVX NSCLC; HCC-2998 colon; OVCAR-3 ovarian; LOX IMVI melanoma; HOP-62 NSCLC; K-562 leukemia; RPMI-8226 leukemia; SK-MEL-5 melanoma; NCI-H226 lung.
Holding throughout (assay): DTP human tumour cell line panel, 48 h

As a reminder, the GI50 is the concentration at which growth is held to half of that of the control. As usually defined, the TGI is the concentration at which net growth stops. A high value points to lower sensitivity of the cells. In the case of `CC(=O)OC1COC(S[As](C)C)C(OC(C)=O)C1OC(C)=O` (stereo not drawn), the GI50 was 0.735 µM in the test on OVCAR-8 ovarian; 2.07 µM with EKVX NSCLC; 0.333 µM in the test with HCC-2998 colon; less than 0.0138 µM with OVCAR-3 ovarian; 0.223 µM in the test on LOX IMVI melanoma; 2.29 µM with HOP-62 NSCLC. For the same molecule, the GI50 in the test on K-562 leukemia is 0.0176 µM; with SK-MEL-5 melanoma it was 0.0658 µM; with NCI-H226 lung it was 1.47 µM. For the same molecule, the TGI was found to be 5.31 µM with OVCAR-8 ovarian; 17.1 µM in the test on EKVX NSCLC; 0.922 µM in the test on HCC-2998 colon; 0.0404 µM with OVCAR-3 ovarian; 0.691 µM with LOX IMVI melanoma; 14.9 µM in the test on HOP-62 NSCLC. For the same molecule, the total growth inhibition concentration (TGI) was 0.0913 µM in the test with K-562 leukemia, 0.0245 µM in the test with RPMI-8226 leukemia, 0.253 µM with SK-MEL-5 melanoma and 7.9 µM in the test with NCI-H226 lung.
On to `COc1ccc(C(O)CNC(=O)c2ccccc2)cc1` (stereo not drawn), for which the TGI in the test on OVCAR-8 ovarian, with EKVX NSCLC, in the test with HCC-2998 colon, with OVCAR-3 ovarian, in the test on LOX IMVI melanoma and in the test on HOP-62 NSCLC was greater than 100 µM throughout. The TGI with K-562 leukemia, in the test with RPMI-8226 leukemia, in the test with SK-MEL-5 melanoma and with NCI-H226 lung was greater than 100 µM throughout.
`CC(ONC(=O)c1cc(C(F)(F)F)cc(C(F)(F)F)c1)C(=O)Nc1ccc(Cl)cc1` (stereo not drawn): the GI50 is 6.2 µM in the test with OVCAR-8 ovarian; 4.46 µM with EKVX NSCLC; 4.16 µM in the test on HCC-2998 colon; 4.25 µM in the test with OVCAR-3 ovarian; 4.02 µM with LOX IMVI melanoma; 8.45 µM with HOP-62 NSCLC. In addition, the GI50 in the test with K-562 leukemia is 5.75 µM; in the test with RPMI-8226 leukemia, 2.27 µM; with SK-MEL-5 melanoma, 2.79 µM; in the test on NCI-H226 lung, 7.31 µM. For the same molecule, the TGI is greater than 62.1 µM in the test on OVCAR-8 ovarian; greater than 63 µM with EKVX NSCLC; 17 µM in the test on HCC-2998 colon; greater than 76.6 µM in the test with OVCAR-3 ovarian; 14 µM with LOX IMVI melanoma; 24.6 µM in the test on HOP-62 NSCLC. The TGI in the test on K-562 leukemia is greater than 45.5 µM; in the test with RPMI-8226 leukemia, 6.98 µM; in the test with SK-MEL-5 melanoma it was 7.86 µM; with NCI-H226 lung, greater than 64.4 µM.
In the case of `N=C(N)SCCc1cn2ccccc2n1`, the TGI in the test with OVCAR-8 ovarian, in the test with EKVX NSCLC, in the test with HCC-2998 colon, with OVCAR-3 ovarian, with LOX IMVI melanoma and in the test on HOP-62 NSCLC was greater than 100 µM each time. Further, the TGI in the test with K-562 leukemia, with RPMI-8226 leukemia, in the test on SK-MEL-5 melanoma and in the test on NCI-H226 lung was greater than 100 µM in each case.
`C#C[C@]1(O)CC[C@H]2[C@@H]3CC=C4c5sc(N=C(N)N)nc5CC[C@]4(C)[C@H]3CC[C@@]21C`: the GI50 is 1.63 µM in the test with OVCAR-8 ovarian; 1.25 µM in the test on EKVX NSCLC; 1.59 µM in the test with HCC-2998 colon; 1.36 µM in the test with OVCAR-3 ovarian; 0.443 µM in the test with LOX IMVI melanoma; 0.984 µM in the test on HOP-62 NSCLC. Moreover, the concentration for 50% growth inhibition (GI50) is 0.354 µM in the test with K-562 leukemia, 0.153 µM in the test on RPMI-8226 leukemia, 0.628 µM in the test with SK-MEL-5 melanoma and 1.82 µM with NCI-H226 lung. The TGI in the test on OVCAR-8 ovarian came out at 4.53 µM; in the test with EKVX NSCLC, 2.85 µM; in the test with HCC-2998 colon, 3.1 µM; with OVCAR-3 ovarian, 2.82 µM; in the test on LOX IMVI melanoma, 1.63 µM; in the test on HOP-62 NSCLC it was 2.62 µM. For the same molecule, the concentration for total growth inhibition (TGI) with K-562 leukemia was 1.35 µM; in the test on RPMI-8226 leukemia, 0.864 µM; with SK-MEL-5 melanoma, 1.66 µM; in the test on NCI-H226 lung, 3.97 µM.
As for `CC(C)=CCc1c(O)cc(/C=C/c2cc(O)c3c(c2)C[C@@H]2C(C)(C)[C@H](O)[C@H](O)C[C@@]2(C)O3)cc1O`, the GI50 with OVCAR-8 ovarian is 1.92 µM; in the test with EKVX NSCLC, 0.789 µM; in the test with HCC-2998 colon, 1.29 µM; with OVCAR-3 ovarian it was 1.5 µM; with LOX IMVI melanoma, 0.0021 µM; in the test with HOP-62 NSCLC it was 1.38 µM. Moreover, the GI50 in the test on K-562 leukemia was 0.0154 µM; with RPMI-8226 leukemia it was less than 0.001 µM; in the test on SK-MEL-5 melanoma, 1.03 µM; in the test on NCI-H226 lung, 1.99 µM. The TGI was greater than 10 µM in the test on OVCAR-8 ovarian; 4.49 µM in the test with EKVX NSCLC; 4.17 µM with HCC-2998 colon; 5.11 µM in the test on OVCAR-3 ovarian; 3.02 µM in the test on LOX IMVI melanoma; greater than 7.95 µM in the test with HOP-62 NSCLC. The figures for the total growth inhibition concentration (TGI) in the test on K-562 leukemia, in the test with SK-MEL-5 melanoma and in the test on NCI-H226 lung were greater than 9.25 µM, 2.32 µM and greater than 10 µM, respectively.
`O=C(OCCOCBr)c1ccccc1`: the TGI in the test with OVCAR-8 ovarian, with EKVX NSCLC, with HCC-2998 colon, in the test with OVCAR-3 ovarian, in the test with LOX IMVI melanoma and in the test on HOP-62 NSCLC was greater than 100 µM each time. For the same molecule, the TGI in the test on K-562 leukemia, with RPMI-8226 leukemia, in the test on SK-MEL-5 melanoma and in the test with NCI-H226 lung was greater than 100 µM throughout.
For `O=S1(=O)CCN(Cc2ccccn2)CC1`, the TGI in the test with OVCAR-8 ovarian was greater than 100 µM; with EKVX NSCLC it was greater than 100 µM; with HCC-2998 colon it was greater than 100 µM; in the test on OVCAR-3 ovarian, 9.94 µM; with LOX IMVI melanoma it was greater than 100 µM; in the test on HOP-62 NSCLC, greater than 100 µM. Moreover, the TGI in the test with K-562 leukemia, in the test on RPMI-8226 leukemia, in the test on SK-MEL-5 melanoma and in the test with NCI-H226 lung was greater than 100 µM throughout.
`O=[N+]([O-])c1ccccc1N=Nc1c(O)[nH]c2ccccc12`: the total growth inhibition concentration (TGI) is greater than 53.5 µM with OVCAR-8 ovarian; 97.6 µM with EKVX NSCLC; greater than 100 µM with HCC-2998 colon; 31.7 µM with OVCAR-3 ovarian; greater than 53 µM in the test on LOX IMVI melanoma; greater than 48 µM with HOP-62 NSCLC. Further, the concentration for total growth inhibition (TGI) in the test with K-562 leukemia is greater than 100 µM; in the test on RPMI-8226 leukemia, greater than 100 µM; with SK-MEL-5 melanoma it was greater than 86.2 µM; in the test on NCI-H226 lung, greater than 59.1 µM.
In the case of `COc1cc(OC)c2c(=O)c(O)c(-c3ccc(OC)c(OC)c3)oc2c1`, the TGI is greater than 100 µM with OVCAR-8 ovarian; greater than 100 µM in the test on EKVX NSCLC; 9.34 µM in the test on HCC-2998 colon; greater than 100 µM in the test on OVCAR-3 ovarian; greater than 100 µM in the test on LOX IMVI melanoma; 19.2 µM in the test with HOP-62 NSCLC. In addition, the TGI is greater than 100 µM with K-562 leukemia, greater than 31.6 µM in the test on RPMI-8226 leukemia, greater than 100 µM in the test with SK-MEL-5 melanoma and greater than 100 µM in the test on NCI-H226 lung.
